Source: the supplement of paper PMC11208160

Experiment: recombinant UMI read abundance after kanamycin selection (control-corrected) (log10(CPM+1)); higher = more efficient recombination; extreme values may be limits of the assay; sequences stand for … in AGTGCAGAGAAAATCGGCCAGTTTTCTCTGCCTGCAGTCCGCATGCCGTGGGACCCCTTGGGTTCTAACCTGTTGCCTAGATTTATGCAGCGGACTGCCTTTCTCCCAAAGTGATAAACCGG…AGGTTGGTTTCACT; site = the 11-nt donor
In short: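 Sequencing read counts were converted to CPM, averaged over two replicates and scaled by control-derived factors. Results are given as log10(CPM+1). The reads covered the donor–target junction of recombinant UMIs from a pooled Escherichia coli screen of donor and donor-binding-loop pairs for the IS621 bridge recombinase.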
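Also: IS621 bridge recombinase in Escherichia coli cells against a fixed T5 target plasmid.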

Sequence | recombinant UMI read abundance (log10)
GCCCACCCATGGACCGGTTTTCCCGGTAATCCGTATTTGAA (site GCCCACCCTTT) | 0.362
GCCCCTACATGGACCGGTTTTCCCGGTAATCCGTATTTGCC (site GCCCCTACTGG) | 2.33
GCCCGAACATGGACCGGTTTTCCCGGTAATCCGTATTTGTC (site GCCCGAACTGA) | 1.98
GCCGACTCATGGACCGGTTTTCCCGGTAATCCGTATTTGCG (site GCCGACTCTCG) | 2.35
GCCGAGCCATGGACCGGTTTTCCCGGTAATCCGTATTTGTA (site GCCGAGCCTTA) | 0.381
GCCGCACCATGGACCGGTTTTCCCGGTAATCCGTATTTGGA (site GCCGCACCTTC) | 0.0196
GCCGCGCCATGGACCGGTTTTCCCGGTAATCCGTATTTGGG (site GCCGCGCCTCC) | 0.0148
GCCGTCCCATGGACCGGTTTTCCCGGTAATCCGTATTTGCA (site GCCGTCCCTTG) | 0.345
GCCTACCCATGGACCGGTTTTCCCGGTAATCCGTATTTGAA (site GCCTACCCTTT) | 0.0461
GCCTAGACATGGACCGGTTTTCCCGGTAATCCGTATTTGGG (site ACCTAGACTCC) | 0.186
GCCTAGACATGGACCGGTTTTCCCGGTAATCCGTATTTGGG (site CCCTAGACTCC) | 0.0341
GCCTAGACATGGACCGGTTTTCCCGGTAATCCGTATTTGGG (site GCCTAGACTCC) | 0.283
GCCTAGACATGGACCGGTTTTCCCGGTAATCCGTATTTGGG (site TCCTAGACTCC) | 0.0888
GCCTAGCCATGGACCGGTTTTCCCGGTAATCCGTATTTGCC (site ACCTAGCCTGG) | 0
GCCTAGCCATGGACCGGTTTTCCCGGTAATCCGTATTTGCC (site CCCTAGCCTGG) | 0
GCCTAGCCATGGACCGGTTTTCCCGGTAATCCGTATTTGCC (site GCCTAGCCTGG) | 0
GCCTAGCCATGGACCGGTTTTCCCGGTAATCCGTATTTGCC (site TCCTAGCCTGG) | 0
GCCTCCCCATGGACCGGTTTTCCCGGTAATCCGTATTTGGA (site GCCTCCCCTTC) | 0.0286
GCCTGGACATGGACCGGTTTTCCCGGTAATCCGTATTTGGC (site GCCTGGACTGC) | 0.0803
GCCTTCACATGGACCGGTTTTCCCGGTAATCCGTATTTGTT (site GCCTTCACTAA) | 0.931
GCCTTCTCATGGACCGGTTTTCCCGGTAATCCGTATTTGGG (site ACCTTCTCTCC) | 0.00678
GCCTTCTCATGGACCGGTTTTCCCGGTAATCCGTATTTGGG (site CCCTTCTCTCC) | 0.0122
GCCTTCTCATGGACCGGTTTTCCCGGTAATCCGTATTTGGG (site GCCTTCTCTCC) | 0.00741

Sequence | recombinant UMI read abundance (log10)
GCCTTCTCATGGACCGGTTTTCCCGGTAATCCGTATTTGGG (site TCCTTCTCTCC) | 0.0193
GCGAAACCATGGACCGGTTTTCCCGGTAATCCGTATTTGGG (site GCGAAACCTCC) | 0
GCGAAACCATGGACCGGTTTTCCCGGTAATCCGTATTTGGG (site GCGAACCCTCC) | 0.0118
GCGAAACCATGGACCGGTTTTCCCGGTAATCCGTATTTGGG (site GCGAAGCCTCC) | 0.0136
GCGAAACCATGGACCGGTTTTCCCGGTAATCCGTATTTGGG (site GCGAATCCTCC) | 0
GCGAAACCATGGACCGGTTTTCCCGGTAATCCGTATTTGTG (site GCGAAACCTCA) | 0
GCGAACCCATGGACCGGTTTTCCCGGTAATCCGTATTTGAA (site GCGAACCCTTT) | 2.49
GCGAACGCATGGACCGGTTTTCCCGGTAATCCGTATTTGCT (site GCGAACGCTAG) | 2.26
GCGAAGACATGGACCGGTTTTCCCGGTAATCCGTATTTGTT (site GCGAAGACTAA) | 2.37
GCGAAGCCATGGACCGGTTTTCCCGGTAATCCGTATTTGAG (site GCGAAGCCTCA) | 0.0311
GCGAAGCCATGGACCGGTTTTCCCGGTAATCCGTATTTGAG (site GCGAAGCCTCC) | 0.0267
GCGAAGCCATGGACCGGTTTTCCCGGTAATCCGTATTTGAG (site GCGAAGCCTCG) | 0
GCGAAGCCATGGACCGGTTTTCCCGGTAATCCGTATTTGAG (site GCGAAGCCTCT) | 0.00807
GCGAAGCCATGGACCGGTTTTCCCGGTAATCCGTATTTGGG (site ACGAAGCCTCC) | 0.0189
GCGAAGCCATGGACCGGTTTTCCCGGTAATCCGTATTTGGG (site CCGAAGCCTCC) | 0.0227
GCGAAGCCATGGACCGGTTTTCCCGGTAATCCGTATTTGGG (site GAGAAGCCTCC) | 0.00349
GCGAAGCCATGGACCGGTTTTCCCGGTAATCCGTATTTGGG (site GCAAAGCCTCC) | 0.00547
GCGAAGCCATGGACCGGTTTTCCCGGTAATCCGTATTTGGG (site GCCAAGCCTCC) | 0
GCGAAGCCATGGACCGGTTTTCCCGGTAATCCGTATTTGGG (site GCGAAACCTCC) | 0
GCGAAGCCATGGACCGGTTTTCCCGGTAATCCGTATTTGGG (site GCGAACCCTCC) | 0
GCGAAGCCATGGACCGGTTTTCCCGGTAATCCGTATTTGGG (site GCGAAGACTCC) | 0.0597
GCGAAGCCATGGACCGGTTTTCCCGGTAATCCGTATTTGGG (site GCGAAGCCTAC) | 0
GCGAAGCCATGGACCGGTTTTCCCGGTAATCCGTATTTGGG (site GCGAAGCCTCA) | 0.00806

Sequence | recombinant UMI read abundance (log10)
GCGAAGCCATGGACCGGTTTTCCCGGTAATCCGTATTTGGG (site GCGAAGCCTCC) | 0.00509
GCGAAGCCATGGACCGGTTTTCCCGGTAATCCGTATTTGGG (site GCGAAGCCTCG) | 0
GCGAAGCCATGGACCGGTTTTCCCGGTAATCCGTATTTGGG (site GCGAAGCCTCT) | 0.00749
GCGAAGCCATGGACCGGTTTTCCCGGTAATCCGTATTTGGG (site GCGAAGCCTGC) | 0
GCGAAGCCATGGACCGGTTTTCCCGGTAATCCGTATTTGGG (site GCGAAGCCTTC) | 0.0136
GCGAAGCCATGGACCGGTTTTCCCGGTAATCCGTATTTGGG (site GCGAAGGCTCC) | 0
GCGAAGCCATGGACCGGTTTTCCCGGTAATCCGTATTTGGG (site GCGAAGTCTCC) | 0.00693
GCGAAGCCATGGACCGGTTTTCCCGGTAATCCGTATTTGGG (site GCGAATCCTCC) | 0.0162
GCGAAGCCATGGACCGGTTTTCCCGGTAATCCGTATTTGGG (site GCGACGCCTCC) | 0.00657
GCGAAGCCATGGACCGGTTTTCCCGGTAATCCGTATTTGGG (site GCGAGGCCTCC) | 0.0307
GCGAAGCCATGGACCGGTTTTCCCGGTAATCCGTATTTGGG (site GCGATGCCTCC) | 0
GCGAAGCCATGGACCGGTTTTCCCGGTAATCCGTATTTGGG (site GCGCAGCCTCC) | 0.011
GCGAAGCCATGGACCGGTTTTCCCGGTAATCCGTATTTGGG (site GCGGAGCCTCC) | 0.0363
GCGAAGCCATGGACCGGTTTTCCCGGTAATCCGTATTTGGG (site GCGTAGCCTCC) | 0.0104
GCGAAGCCATGGACCGGTTTTCCCGGTAATCCGTATTTGGG (site GCTAAGCCTCC) | 0.0212
GCGAAGCCATGGACCGGTTTTCCCGGTAATCCGTATTTGGG (site GGGAAGCCTCC) | 0.0306
GCGAAGCCATGGACCGGTTTTCCCGGTAATCCGTATTTGGG (site GTGAAGCCTCC) | 0.0355
GCGAAGCCATGGACCGGTTTTCCCGGTAATCCGTATTTGGG (site TCGAAGCCTCC) | 0.0116
GCGAATCCATGGACCGGTTTTCCCGGTAATCCGTATTTGGG (site GCGAAACCTCC) | 0.0049
GCGAATCCATGGACCGGTTTTCCCGGTAATCCGTATTTGGG (site GCGAACCCTCC) | 0
GCGAATCCATGGACCGGTTTTCCCGGTAATCCGTATTTGGG (site GCGAAGCCTCC) | 0.23
GCGAATCCATGGACCGGTTTTCCCGGTAATCCGTATTTGGG (site GCGAATCCTCC) | 0.00555
